Results reported in patent EP4745137A1 (Gluetacs Therapeutics (Shanghai) Co., Ltd., priority 2023, dated 2025).
pIC50: −log10 of the molar value.

How the values were obtained:
IKZF2 = target: T1, IKZF2 (Homo sapiens, UniProt Q96SW2+Q9UKS7); assay: Western-blot assay of substrate protein degradation in hPBMCs, IKZF2; assay type: cell-based; conditions: 24 hours of compound treatment
T1 construct: endogenous in cells; host or cells: hPBMCs (Milecell Biotechnologies)

WEE1 = target: T2, WEE1 (Homo sapiens, UniProt P30291+Q96SW2); assay: Western-blot assay of substrate protein degradation in hPBMCs, WEE1; assay type: cell-based; conditions: 24 hours of compound treatment
T2 construct: endogenous in cells; host or cells: hPBMCs (Milecell Biotechnologies)
T2 sequence (P30291 whole entry): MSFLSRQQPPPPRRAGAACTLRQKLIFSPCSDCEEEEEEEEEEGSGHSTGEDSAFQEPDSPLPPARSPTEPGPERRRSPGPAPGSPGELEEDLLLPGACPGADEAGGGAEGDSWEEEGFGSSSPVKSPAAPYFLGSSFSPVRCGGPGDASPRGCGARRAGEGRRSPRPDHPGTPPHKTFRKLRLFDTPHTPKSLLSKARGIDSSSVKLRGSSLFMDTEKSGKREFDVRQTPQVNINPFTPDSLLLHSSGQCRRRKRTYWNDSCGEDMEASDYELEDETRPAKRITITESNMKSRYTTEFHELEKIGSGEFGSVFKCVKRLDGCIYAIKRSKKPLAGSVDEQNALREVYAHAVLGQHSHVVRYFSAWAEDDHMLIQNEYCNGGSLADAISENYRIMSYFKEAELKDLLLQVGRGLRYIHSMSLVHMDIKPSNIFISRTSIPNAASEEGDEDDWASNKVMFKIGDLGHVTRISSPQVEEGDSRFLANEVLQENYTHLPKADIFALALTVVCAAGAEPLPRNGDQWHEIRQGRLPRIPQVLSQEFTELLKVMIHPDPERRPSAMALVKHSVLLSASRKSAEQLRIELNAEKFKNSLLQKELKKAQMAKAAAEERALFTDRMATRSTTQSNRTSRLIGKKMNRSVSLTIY
T2 sequence (Q96SW2 whole entry): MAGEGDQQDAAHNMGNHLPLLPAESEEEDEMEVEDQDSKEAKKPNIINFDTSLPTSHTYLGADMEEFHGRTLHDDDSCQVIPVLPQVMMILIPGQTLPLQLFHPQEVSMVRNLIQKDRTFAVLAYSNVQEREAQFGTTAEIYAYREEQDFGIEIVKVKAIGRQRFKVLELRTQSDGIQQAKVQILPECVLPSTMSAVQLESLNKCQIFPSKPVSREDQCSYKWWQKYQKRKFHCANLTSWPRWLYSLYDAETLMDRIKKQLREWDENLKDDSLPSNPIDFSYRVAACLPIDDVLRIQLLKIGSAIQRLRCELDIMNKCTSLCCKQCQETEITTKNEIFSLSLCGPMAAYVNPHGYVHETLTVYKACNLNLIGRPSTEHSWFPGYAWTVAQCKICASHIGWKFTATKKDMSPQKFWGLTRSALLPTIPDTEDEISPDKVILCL
T2 sequence (Q16531 whole entry partner): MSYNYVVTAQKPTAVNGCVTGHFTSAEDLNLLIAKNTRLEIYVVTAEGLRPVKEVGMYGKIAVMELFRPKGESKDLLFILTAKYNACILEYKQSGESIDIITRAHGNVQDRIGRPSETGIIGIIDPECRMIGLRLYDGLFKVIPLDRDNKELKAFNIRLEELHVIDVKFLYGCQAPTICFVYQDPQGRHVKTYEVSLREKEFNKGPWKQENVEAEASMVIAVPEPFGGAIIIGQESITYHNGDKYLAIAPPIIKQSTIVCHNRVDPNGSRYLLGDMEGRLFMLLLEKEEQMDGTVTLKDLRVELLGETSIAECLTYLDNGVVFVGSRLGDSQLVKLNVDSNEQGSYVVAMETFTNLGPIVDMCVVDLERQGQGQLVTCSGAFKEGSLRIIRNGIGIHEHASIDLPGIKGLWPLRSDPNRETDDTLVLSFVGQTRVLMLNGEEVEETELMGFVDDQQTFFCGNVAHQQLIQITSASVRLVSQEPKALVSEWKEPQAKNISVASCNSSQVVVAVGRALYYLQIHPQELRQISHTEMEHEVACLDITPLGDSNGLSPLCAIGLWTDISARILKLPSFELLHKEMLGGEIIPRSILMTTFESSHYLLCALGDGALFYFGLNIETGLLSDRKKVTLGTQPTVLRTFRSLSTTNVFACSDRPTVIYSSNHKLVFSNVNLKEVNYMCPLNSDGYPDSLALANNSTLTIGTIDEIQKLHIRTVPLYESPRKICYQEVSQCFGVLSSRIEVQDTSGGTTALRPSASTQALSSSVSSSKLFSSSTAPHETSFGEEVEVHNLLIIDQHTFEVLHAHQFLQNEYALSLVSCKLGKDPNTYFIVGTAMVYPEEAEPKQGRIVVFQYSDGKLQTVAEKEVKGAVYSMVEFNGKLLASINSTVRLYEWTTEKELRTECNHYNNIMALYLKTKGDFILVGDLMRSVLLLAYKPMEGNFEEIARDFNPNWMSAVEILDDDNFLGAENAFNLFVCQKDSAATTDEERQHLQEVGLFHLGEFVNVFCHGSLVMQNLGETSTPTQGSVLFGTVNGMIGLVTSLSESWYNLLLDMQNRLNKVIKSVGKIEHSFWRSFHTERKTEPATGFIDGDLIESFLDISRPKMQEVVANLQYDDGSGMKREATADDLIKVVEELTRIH

GSPT1 = target: T3, GSPT1 (Homo sapiens, UniProt P15170+Q96SW2); assay: Western-blot assay of substrate protein degradation in hPBMCs, GSPT1; assay type: cell-based; conditions: 24 hours of compound treatment
T3 construct: endogenous in cells; host or cells: hPBMCs (Milecell Biotechnologies)
T3 sequence (P15170 whole entry): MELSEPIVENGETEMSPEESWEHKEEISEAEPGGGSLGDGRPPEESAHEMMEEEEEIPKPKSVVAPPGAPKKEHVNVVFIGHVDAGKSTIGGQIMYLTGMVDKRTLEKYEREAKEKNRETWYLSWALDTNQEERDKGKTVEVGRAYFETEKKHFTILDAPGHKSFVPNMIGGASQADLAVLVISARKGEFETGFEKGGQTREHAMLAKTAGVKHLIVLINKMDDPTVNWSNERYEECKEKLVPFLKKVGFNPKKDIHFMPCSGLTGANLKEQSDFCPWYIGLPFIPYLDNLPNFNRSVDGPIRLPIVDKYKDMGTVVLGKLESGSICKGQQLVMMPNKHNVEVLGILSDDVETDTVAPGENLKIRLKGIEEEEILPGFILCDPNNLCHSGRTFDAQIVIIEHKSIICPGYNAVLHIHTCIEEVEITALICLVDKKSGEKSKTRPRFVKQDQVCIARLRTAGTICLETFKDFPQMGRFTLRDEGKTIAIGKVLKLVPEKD
T3 sequence (Q96SW2 whole entry): as the sequence (Q96SW2 whole entry) above
T3 sequence (Q16531 whole entry partner): as the sequence (Q16531 whole entry partner) above

CK1α = target: T4, CK1α (Homo sapiens, UniProt P48729+Q96SW2); assay: Western-blot assay of substrate protein degradation in hPBMCs, CK1α; assay type: cell-based; conditions: 24 hours of compound treatment
T4 construct: endogenous in cells; host or cells: hPBMCs (Milecell Biotechnologies)
T4 sequence (P48729 whole entry): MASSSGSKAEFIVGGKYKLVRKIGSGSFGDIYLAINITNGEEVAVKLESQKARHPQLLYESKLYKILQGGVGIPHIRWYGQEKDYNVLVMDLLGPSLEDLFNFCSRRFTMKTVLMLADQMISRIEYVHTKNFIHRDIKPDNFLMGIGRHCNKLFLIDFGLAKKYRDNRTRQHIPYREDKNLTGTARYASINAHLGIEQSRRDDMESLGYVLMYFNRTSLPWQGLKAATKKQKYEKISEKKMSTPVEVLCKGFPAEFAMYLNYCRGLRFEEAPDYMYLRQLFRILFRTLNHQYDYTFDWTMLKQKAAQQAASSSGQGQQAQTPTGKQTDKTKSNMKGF
T4 sequence (Q96SW2 whole entry): as the sequence (Q96SW2 whole entry) above
T4 sequence (Q16531 whole entry partner): as the sequence (Q16531 whole entry partner) above

IKZF3 = target: T5, IKZF3 (Homo sapiens, UniProt Q96SW2+Q9UKT9); assay: Western-blot assay of substrate protein degradation in hPBMCs, IKZF3; assay type: cell-based; conditions: 24 hours of compound treatment
T5 construct: endogenous in cells; host or cells: hPBMCs (Milecell Biotechnologies)

IKZF1 = target: T6, IKZF1 (Homo sapiens, UniProt Q13422+Q96SW2); assay: Western-blot assay of substrate protein degradation in hPBMCs, IKZF1; assay type: cell-based; conditions: 24 hours of compound treatment
T6 construct: endogenous in cells; host or cells: hPBMCs (Milecell Biotechnologies)
T6 sequence (Q13422 whole entry): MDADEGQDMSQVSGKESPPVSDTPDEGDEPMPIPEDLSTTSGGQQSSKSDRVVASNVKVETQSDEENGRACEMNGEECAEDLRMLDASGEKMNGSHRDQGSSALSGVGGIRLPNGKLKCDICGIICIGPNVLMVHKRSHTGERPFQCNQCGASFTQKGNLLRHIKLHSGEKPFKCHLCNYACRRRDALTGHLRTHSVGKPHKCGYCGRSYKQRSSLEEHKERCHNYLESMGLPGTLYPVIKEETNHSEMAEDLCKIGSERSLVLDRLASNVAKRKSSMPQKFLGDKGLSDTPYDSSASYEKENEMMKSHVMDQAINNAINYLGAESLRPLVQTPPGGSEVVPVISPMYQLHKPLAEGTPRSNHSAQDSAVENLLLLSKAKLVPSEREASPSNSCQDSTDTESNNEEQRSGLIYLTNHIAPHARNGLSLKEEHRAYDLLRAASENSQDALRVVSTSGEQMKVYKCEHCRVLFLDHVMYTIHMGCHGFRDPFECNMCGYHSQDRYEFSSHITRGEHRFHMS
T6 sequence (Q96SW2 whole entry): as the sequence (Q96SW2 whole entry) above
T6 sequence (Q16531 whole entry partner): as the sequence (Q16531 whole entry partner) above

[1] = target: T7, human Cereblon WT GST-tagged protein (Homo sapiens, UniProt Q96SW2); assay: CRBN-binding affinity by HTRF (CEREBLON BINDING kit); conditions: HTRF inhibitory activity, CEREBLON BINDING kit; read-out: HTRF IC50
T7 construct: purchased CISBIO 64BDCRBNPEH
T7 sequence (Q96SW2 whole entry): as the sequence (Q96SW2 whole entry) above

[2] = compounds tested at 50 nM and 500 nM (concentration of the table not stated)
[3] = 50 nM and 500 nM tested (concentration behind the class not stated)

T1 sequence (Q9UKS7 whole entry): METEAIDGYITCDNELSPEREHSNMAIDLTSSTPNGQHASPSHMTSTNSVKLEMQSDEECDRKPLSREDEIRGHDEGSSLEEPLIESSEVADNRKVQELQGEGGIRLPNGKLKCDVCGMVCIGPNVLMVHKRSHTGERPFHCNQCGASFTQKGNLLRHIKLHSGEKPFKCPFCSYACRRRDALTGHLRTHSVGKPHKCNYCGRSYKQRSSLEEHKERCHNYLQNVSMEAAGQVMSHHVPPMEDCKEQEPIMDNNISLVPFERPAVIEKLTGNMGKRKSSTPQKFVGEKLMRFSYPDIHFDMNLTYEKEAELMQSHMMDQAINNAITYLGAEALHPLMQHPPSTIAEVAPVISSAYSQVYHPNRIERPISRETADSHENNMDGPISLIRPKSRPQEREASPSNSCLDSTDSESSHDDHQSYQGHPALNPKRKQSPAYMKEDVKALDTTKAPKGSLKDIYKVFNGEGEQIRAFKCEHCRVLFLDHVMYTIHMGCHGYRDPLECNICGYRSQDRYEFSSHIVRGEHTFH
T1 sequence (Q96SW2 whole entry): as the sequence (Q96SW2 whole entry) above
T1 sequence (Q16531 whole entry partner): as the sequence (Q16531 whole entry partner) above

| pIC50 [1] | SMILES | IKZF2 substrate protein remaining % (IKZF2; [2]) | Weel substrate protein remaining % (WEE1; [2]) | GSPT1 substrate protein remaining % (GSPT1; [2]) | CK1a substrate protein remaining % (CK1α; [2]) | IKZF3 substrate protein remaining % (IKZF3; [2]) | IKZF 1 substrate protein remaining % (IKZF1; [2]) | IKZF2 substrate protein remaining % (IKZF2; [3]) | Weel substrate protein remaining % (WEE1; [3]) | GSPT1 substrate protein remaining % (GSPT1; [3]) | CK1a substrate protein remaining % (CK1α; [3]) | IKZF3 substrate protein remaining % (IKZF3; [3]) | IKZF 1 substrate protein remaining % (IKZF1; [3]) |
| --- | --- | --- | --- | --- | --- | --- | --- | --- | --- | --- | --- | --- | --- |
| 6.00 to 6.30 | Cc1nc(C2CCN(Cc3ccc4c(c3)CN(C3CCC(=O)NC3=O)C4=O)CC2)c2c3c(sc2n1)CCC3 (stereo not drawn) [GT-05210, 3-(5-((4-(2-methyl-6,7-dihydro-5H-cyclopenta[4,5]thieno[2,3-d]pyrimidin-4-yl)piperidin-1-yl)methyl)-1-oxoisoindolin-2-yl)piperidine-2,6-dione] | A (0% ≤ substrate protein remaining % ≤ 80%) | A (0% ≤ substrate protein remaining % ≤ 80%) | B (80%< substrate protein remaining %≤ 100%) | A (0% ≤ substrate protein remaining % ≤ 80%) | A (0% ≤ substrate protein remaining % ≤ 80%) | A (0% ≤ substrate protein remaining % ≤ 80%) | – | – | – | – | – | – |
| > 6.30 | O=C1CCC(N2Cc3cc(CN4CCC(c5ncnc6sc7c(c56)CCCC7)CC4)ccc3C2=O)C(=O)N1 (stereo not drawn) [GT-05265, 3-(1-oxo-5-((4-(5,6,7,8-tetrahydrobenzo[4,5]thieno[2,3-d]pyrimidin-4-yl)piperidin-1-yl)methyl)isoindolin-2-yl)piperidine-2,6-dione] | A (0% ≤ substrate protein remaining % ≤ 80%) | B (80%< substrate protein remaining %≤ 100%) | A (0% ≤ substrate protein remaining % ≤ 80%) | A (0% ≤ substrate protein remaining % ≤ 80%) | A (0% ≤ substrate protein remaining % ≤ 80%) | A (0% ≤ substrate protein remaining % ≤ 80%) | – | – | – | – | – | – |
| > 6.30 | O=C1CCC(N2Cc3cc(CN4CCN(c5nsc6cc(F)ccc56)CC4)ccc3C2=O)C(=O)N1 (stereo not drawn) [GT-05332, 3-(5-((4-(6-fluorobenzo[d]isothiazol-3-yl)piperazin-1-yl)methyl)-1-oxoisoindolin-2-yl)piperidine-2,6-dione] | A (0% ≤ substrate protein remaining % ≤ 80%) | B (80%< substrate protein remaining %≤ 100%) | B (80%< substrate protein remaining %≤ 100%) | B (80%< substrate protein remaining %≤ 100%) | B (80%< substrate protein remaining %≤ 100%) | B (80%< substrate protein remaining %≤ 100%) | – | – | – | – | – | – |
| > 6.30 | O=C1CCC(N2Cc3cc(CN4CCN(c5nc(N6CCCC6)nc6c5SCC6)CC4)ccc3C2=O)C(=O)N1 (stereo not drawn) [GT-05389, 3-(1-oxo-5-((4-(2-(pyrrolidin-1-yl)-6,7-dihydrothieno[3,2-d]pyrimidin-4-yl)piperazin-1-yl)methyl)isoindolin-2-yl)piperidine-2,6-dione] | A (0% ≤ substrate protein remaining % ≤ 80%) | B (80%< substrate protein remaining %≤ 100%) | B (80%< substrate protein remaining %≤ 100%) | B (80%< substrate protein remaining %≤ 100%) | B (80%< substrate protein remaining %≤ 100%) | A (0% ≤ substrate protein remaining % ≤ 80%) | – | – | – | – | – | – |
| > 6.30 | O=C1CCC(N2Cc3cc(CN4CCN(c5nc(N6CCC6)nc6c5SCC6)CC4)ccc3C2=O)C(=O)N1 (stereo not drawn) [GT-05900, 3-(5-((4-(2-(azetidin-1-yl)-6,7-dihydrothieno[3,2-d]pyrimidin-4-yl)piperazin-1-yl)methyl)-1-oxoisoindolin-2-yl)piperidine-2,6-dione] | – | – | – | – | – | – | A (0% ≤ substrate protein remaining % ≤ 80%) | B (80%< substrate protein remaining %≤ 100%) | B (80%< substrate protein remaining %≤ 100%) | B (80%< substrate protein remaining %≤ 100%) | A (0% ≤ substrate protein remaining % ≤ 80%) | B (80%< substrate protein remaining %≤ 100%) |
| > 6.30 | O=C1CCC(N2C(=O)c3ccc(CN4CCN(c5cccs5)CC4)cc3C2=O)C(=O)N1 (stereo not drawn) [GT-06212, 2-(2,6-dioxopiperidin-3-yl)-5-((4-(thiophen-2-yl)piperazin-1-yl)methyl)isoindoline-1,3-dione] | – | – | – | – | – | – | A (0% ≤ substrate protein remaining % ≤ 80%) | B (80%< substrate protein remaining %≤ 100%) | A (0% ≤ substrate protein remaining % ≤ 80%) | B (80%< substrate protein remaining %≤ 100%) | B (80%< substrate protein remaining %≤ 100%) | B (80%< substrate protein remaining %≤ 100%) |
| 5.72 to 5.82 | Cc1ccc(N2CCN(Cc3ccc4c(c3)C(=O)N(C3CCC(=O)NC3=O)C4=O)CC2)s1 (stereo not drawn) [GT-06213, 2-(2,6-dioxopiperidin-3-yl)-5-((4-(5-methylthiophen-2-yl)piperazin-1-yl)methyl)isoindoline-1,3-dione] | – | – | – | – | – | – | A (0% ≤ substrate protein remaining % ≤ 80%) | B (80%< substrate protein remaining %≤ 100%) | A (0% ≤ substrate protein remaining % ≤ 80%) | B (80%< substrate protein remaining %≤ 100%) | B (80%< substrate protein remaining %≤ 100%) | B (80%< substrate protein remaining %≤ 100%) |
| 6.00 to 6.30 | O=C1CCC(N2C(=O)c3ccc(CN4CCN(c5ccsc5)CC4)cc3C2=O)C(=O)N1 (stereo not drawn) [GT-06215, 2-(2,6-dioxopiperidin-3-yl)-5-((4-(thiophen-3-yl)piperazin-1-yl)methyl)isoindoline-1,3-dione] | – | – | – | – | – | – | B (80%< substrate protein remaining %≤ 100%) | A (0% ≤ substrate protein remaining % ≤ 80%) | B (80%< substrate protein remaining %≤ 100%) | A (0% ≤ substrate protein remaining % ≤ 80%) | A (0% ≤ substrate protein remaining % ≤ 80%) | B (80%< substrate protein remaining %≤ 100%) |
| 5.82 to 6.00 | O=C1CCC(N2C(=O)c3ccc(CN4CCC(=C5CCOc6cc(F)ccc65)CC4)cc3C2=O)C(=O)N1 (stereo not drawn) [GT-06238, 2-(2,6-dioxopiperidin-3-yl)-5-((4-(7-fluorochroman-4-ylidene)piperidin-1-yl)methyl)isoindoline-1,3-dione] | A (0% ≤ substrate protein remaining % ≤ 80%) | B (80%< substrate protein remaining %≤ 100%) | A (0% ≤ substrate protein remaining % ≤ 80%) | B (80%< substrate protein remaining %≤ 100%) | A (0% ≤ substrate protein remaining % ≤ 80%) | B (80%< substrate protein remaining %≤ 100%) | – | – | – | – | – | – |

| SMILES | pIC50 [1] | IKZF2 substrate protein remaining % (IKZF2; [2]) | Weel substrate protein remaining % (WEE1; [2]) | GSPT1 substrate protein remaining % (GSPT1; [2]) | CK1a substrate protein remaining % (CK1α; [2]) | IKZF3 substrate protein remaining % (IKZF3; [2]) | IKZF 1 substrate protein remaining % (IKZF1; [2]) | IKZF2 substrate protein remaining % (IKZF2; [3]) | Weel substrate protein remaining % (WEE1; [3]) | GSPT1 substrate protein remaining % (GSPT1; [3]) | CK1a substrate protein remaining % (CK1α; [3]) | IKZF3 substrate protein remaining % (IKZF3; [3]) | IKZF 1 substrate protein remaining % (IKZF1; [3]) |
| --- | --- | --- | --- | --- | --- | --- | --- | --- | --- | --- | --- | --- | --- |
| Cc1ccc(C2=CCN(Cc3ccc4c(c3)C(=O)N(C3CCC(=O)NC3=O)C4=O)CC2)s1 (stereo not drawn) [GT-06220, 2-(2,6-dioxopiperidin-3-yl)-5-((4-(5-methylthiophen-2-yl)-3,6-dihydropyridin-1(2H)-yl)methyl)isoindoline-1,3-dione] | 5.72 to 5.82 | – | – | – | – | – | – | A (0% ≤ substrate protein remaining % ≤ 80%) | A (0% ≤ substrate protein remaining % ≤ 80%) | A (0% ≤ substrate protein remaining % ≤ 80%) | A (0% ≤ substrate protein remaining % ≤ 80%) | A (0% ≤ substrate protein remaining % ≤ 80%) | A (0% ≤ substrate protein remaining % ≤ 80%) |
| O=C1CCC(N2C(=O)c3ccc(CN4CC=C(c5ccco5)CC4)cc3C2=O)C(=O)N1 (stereo not drawn) [GT-06222, 2-(2,6-dioxopiperidin-3-yl)-5-((4-(furan-2-yl)-3,6-dihydropyridin-1(2H)-yl)methyl)isoindoline-1,3-dione] | 5.82 to 6.00 | – | – | – | – | – | – | A (0% ≤ substrate protein remaining % ≤ 80%) | A (0% ≤ substrate protein remaining % ≤ 80%) | A (0% ≤ substrate protein remaining % ≤ 80%) | A (0% ≤ substrate protein remaining % ≤ 80%) | A (0% ≤ substrate protein remaining % ≤ 80%) | A (0% ≤ substrate protein remaining % ≤ 80%) |
| O=C1CCC(N2C(=O)c3ccc(CN4CC=C(c5ccoc5)CC4)cc3C2=O)C(=O)N1 (stereo not drawn) [GT-06223, 2-(2,6-dioxopiperidin-3-yl)-5-((4-(furan-3-yl)-3,6-dihydropyridin-1(2H)-yl)methyl)isoindoline-1,3-dione] | 5.82 to 6.00 | – | – | – | – | – | – | B (80%< substrate protein remaining %≤ 100%) | A (0% ≤ substrate protein remaining % ≤ 80%) | A (0% ≤ substrate protein remaining % ≤ 80%) | A (0% ≤ substrate protein remaining % ≤ 80%) | A (0% ≤ substrate protein remaining % ≤ 80%) | A (0% ≤ substrate protein remaining % ≤ 80%) |
